Measured values reported in USRE48461E1, “Modulation of androgen receptor expression” (Ionis Pharmaceuticals, Inc., priority 2012, dated 2021).
Oligonucleotides are written 5' to 3', each unit as a sugar letter and its base; * is a phosphorothioate linkage, no mark a phosphodiester; rarer units and linkages stand in square brackets, end groups in braces. Plain capitals give the bases only. k = constrained ethyl (cEt); [5mC] = 5-methylcytosine; d = 2'-deoxy (DNA)

Tests used:
Format in all cases: cell-based, human
C4-2B MR cells = test: Proliferation of MDV3100-resistant C4-2B cells (CellTiter 96); details: 0.04-5.00 μM, 6 days
Procedure: ISIS 549372, ISIS 549434, ISIS 549458, and ISIS 554221 were each added to the culture media at 0.04 μM, 0.20 μM, 1.00 μM, and 5.00 μM concentration of antisense oligonucleotide. ISIS 347526 was included as a negative control. After a treatment period of 6 days, the proliferative capacity of the cancer cells was measured with using CellTiter 96® AQueous One Solution Cell Proliferation kit (Promega), following the manufacturer's instructions. Results are presented in Table 41 as percent inhibition of proliferation, relative to non-treated cells.

total AR mRNA = test: Total (full-length) AR mRNA in C4-2B MR cells, free uptake; details: C4-2B MR cells, 0.04-5.00 μM free uptake, 24 hrs
Procedure: Cells were plated at a density of 40,000 cells per well in 96-well plates and cultured in RPMI1640 medium with 10% fetal bovine serum. […] ISIS 549372, ISIS 549458, ISIS 549434, and ISIS 554221 were each added at 0.04 μM, 0.20 μM, 1.00 μM, and 5.00 μM concentrations of antisense oligonucleotide to culture media for free uptake by the cells. […] After a treatment period of 24 hrs, total AR mRNA levels were measured by quantitative real-time PCR using primer probe set RTS3559.

KLK3 mRNA = KLK3 mRNA (AR target gene) in C4-2B MR cells; details: C4-2B MR cells, 0.04-5.00 μM
AR mRNA = AR mRNA in C4-2B cells by free uptake (hAR_LTS00943); details: 24 hrs; for Percent inhibition of AR full-length mRNA: free uptake
Procedure: (§1) Cells were plated at a concentration of 1,000 cells/well in 96-well plates to measure cell proliferation, and at 4,000 cells/well to measure target reduction. ISIS 549458, ISIS 549372, ISIS 549434, and ISIS 554221 were added individually at 0.04 μM, 0.20 μM, 1.00 μM, or 5.00 μM. After an incubation period of 24 hrs, mRNA levels were measured using hAR_LTS00943.

CWR22-RV1 cells = test: CWR22-RV1 cell proliferation (CellTiter 96); details: RNAiMax, 6 days
Procedure: (§2) CWR22-RV1 cells were plated and transfected using RNAiMax reagent (Life Technologies) with ISIS oligonucleotides at 1.7 nM, 5.0 nM, 16.7 nM, or 50 nM concentrations. ISIS 347526 was included as a negative control. After a treatment period of 6 days, the target reduction and proliferative capacity of the cancer cells was measured.
(§3) Antisense inhibition of AR full-length mRNA was measured with the RTS3559 primer probe set. The results are presented in Table 63 as percent inhibition relative to non-treated cells. The reduction in V7 splice variant of the AR mRNA was also measured by RT-PCR using SYBR Green staining (Hu, R. et al., Cancer Res. 2009. 69: 16-22). The results are presented in Table 64, as percent reduction, relative to non-treated cells. Cell proliferation was measured with CellTiter 96® AQueous One Solution Cell Proliferation kit (Promega), following the manufacturer's instructions. Results are presented in Table 65 as percent inhibition of proliferation, relative to non-treated cells.

AR full-length mRNA = AR full-length mRNA in CWR22-RV1 cells (RNAiMax, RTS3559); details: 6 days
Procedure: as §2, §3

full-length AR = test: Western blot of full-length AR in MDV3100-resistant C4-2B cells
Procedure: (§4) ISIS 549372, ISIS 549434, and ISIS 554221 at 1 μM concentration of antisense oligonucleotide were each added to the culture media at 1 μM concentration for free uptake by the cells. After a treatment period of 2 days, cells were harvested in RIPA buffer containing protease inhibitors. The presence of bands for full-length AR, as well as the variant form, AR-V7, was detected by western blot using AR antibody (N-20, Santa Cruz).
(§5) Western analysis of full-length AR, as well as the AR-V7 variant, was also conducted in a manner similar to the assay described above.

KLK2 mRNA = KLK2 mRNA (AR target gene) in C4-2B MR cells; details: C4-2B MR cells, 0.04-5.00 μM
C4-2B cells [1] = test: C4-2B cell proliferation by free uptake (MTT); details: day 6
Procedure: as §1
On day 6, cells plated for measuring proliferation were incubated with MTT reagent until the development of color. Color intensity was measured using a spectrophotometer at 490 nm.

AR-V7 = test: Western blot of AR-V7 in MDV3100-resistant C4-2B cells
Procedure: as §4, §5

C4-2B cells [2] = test: C4-2B cell proliferation, ASO in combination with MDV3100 (Example 19)
Procedure: C4-2B cells were plated at 1,500 cells per well. […] ISIS 347526 was included as a negative control. […] After a treatment period of 6 days, the proliferative capacity of the cancer cells was measured with CellTiter 96® AQueous One Solution Cell Proliferation kit (Promega), following the manufacturer's instructions. Results are presented in Table 46 as percent inhibition of proliferation, relative to non-treated cells. Treatment of the cells with ISIS 549372 or ISIS 549458 reduced proliferation of the cells more extensively than treatment with ISIS 554221.

[3] = tested on: V7 splice variant of the AR mRNA; test: AR V7 splice variant mRNA in CWR22-RV1 cells (RT-PCR SYBR Green); details: RNAiMax, 6 days
Procedure: as §2, §3

[4] = C4-2B MR cells, 1 μM ASO free uptake, 2 days (Example 15)

Question: With “AAGTTGTAGTAGTCGC (kA*kA*kG*dT*dT*dG*dT*dA*dG*dT*dA*dG*dT*k[5mC]*kG*k[5mC]) [ISIS 549372, targets exon 1]” as the sequence, how does the “proliferation of C4-2B MR cells” value (C4-2B MR cells) read?
Answer: reduced proliferation of the cells in a dose dependent manner more extensively than treatment with ISIS 554221

Question: What about the “total AR transcript levels” value (total AR mRNA) of the same sequence?
Answer: reduced total AR transcript levels in a dose dependent manner more extensively than treatment with ISIS 554221

Question: What about the “AR target gene KLK3 mRNA levels” value (KLK3 mRNA) of the same sequence?
Answer: reduced target gene levels in a dose dependent manner more extensively than treatment with ISIS 554221

Question: What about the “AR mRNA expression” value (AR mRNA; free uptake 0.04-5.00 μM) of the same sequence?
Answer: inhibited AR mRNA expression more potently than ISIS 554221

Question: What about the “Percent inhibition of AR full-length mRNA” value (AR mRNA; dose 0.04 μM) of the same sequence?
Answer: 10%

Question: And the “Percent inhibition of AR full-length mRNA” value (AR mRNA; dose 0.20 μM)?
Answer: 36%

Question: And the “Percent inhibition of AR full-length mRNA” value (AR mRNA; dose 1.00 μM)?
Answer: 73%

Question: What about the “Percent inhibition of AR full-length mRNA” value (AR mRNA; dose 5.00 μM) of the same sequence?
Answer: 80%

Question: And the “Percent inhibition of cell proliferation” value (CWR22-RV1 cells; dose 5.0 nM)?
Answer: 0%

Question: And the “Percent inhibition of cell proliferation” value (CWR22-RV1 cells; dose 16.7 nM)?
Answer: 25%

Question: And the “Percent inhibition of cell proliferation” value (CWR22-RV1 cells; dose 50.0 nM)?
Answer: 53%

Question: What about the “Percent inhibition of AR full-length mRNA” value (AR full-length mRNA; dose 5.0 nM) of the same sequence?
Answer: 53%

Question: And the “Percent inhibition of AR full-length mRNA” value (AR full-length mRNA; dose 16.7 nM)?
Answer: 64%

Question: And the “Percent inhibition of AR full-length mRNA” value (AR full-length mRNA; dose 50.0 nM)?
Answer: 78%

Question: And the “levels of full-length AR (Western analysis)” value (full-length AR; C4-2B MR cells (Example 16))?
Answer: reduced levels of full-length AR and AR-V7

Question: And the “full-length AR (western blot)” value (full-length AR; [4])?
Answer: reduced full-length AR and AR-V7 more extensively than treatment with either ISIS 554221 or ISIS 549434

Question: And the “AR target gene KLK2 mRNA levels” value (KLK2 mRNA)?
Answer: reduced target gene levels in a dose dependent manner more extensively than treatment with ISIS 554221

Question: And the “Percent inhibition of cell proliferation” value (C4-2B cells [1]; dose 0.04 μM)?
Answer: 8%

Question: What about the “Percent inhibition of cell proliferation” value (C4-2B cells [1]; dose 0.20 μM) of the same sequence?
Answer: 34%

Question: What about the “Percent inhibition of cell proliferation” value (C4-2B cells [1]; dose 1.00 μM) of the same sequence?
Answer: 44%

Question: And the “Percent inhibition of cell proliferation” value (C4-2B cells [1]; dose 5.00 μM)?
Answer: 45%

Question: And the “levels of AR-V7 (Western analysis)” value (AR-V7; C4-2B MR cells (Example 16))?
Answer: reduced levels of full-length AR and AR-V7

Question: What about the “AR-V7 (western blot)” value (AR-V7; [4]) of the same sequence?
Answer: reduced full-length AR and AR-V7 more extensively than treatment with either ISIS 554221 or ISIS 549434

Question: What about the “Percent inhibition of C4-2B cell proliferation with 0.1 μM ASO” value (“Percent inhibition … with 0.1 μM ASO” for short) (C4-2B cells [2]; 0.1 μM ASO + MDV3100 1 μM, 6 days) of the same sequence?
Answer: 66%

Question: And the “Percent inhibition … with 0.1 μM ASO” value (C4-2B cells [2]; 0.1 μM ASO + MDV3100 […], 6 days)?
Answer: 44%

Question: And the “Percent inhibition … with 0.1 μM ASO” value (C4-2B cells [2]; 0.1 μM ASO, MDV3100 0 μM, 6 days)?
Answer: 23%

Question: What about the “Percent inhibition of C4-2B cell proliferation with 0.2 μM ASO” value (“Percent inhibition … with 0.2 μM ASO” for short) (C4-2B cells [2]; 0.2 μM ASO + MDV3100 1 μM, 6 days) of the same sequence?
Answer: 77%

Question: What about the “Percent inhibition … with 0.2 μM ASO” value (C4-2B cells [2]; 0.2 μM ASO + MDV3100 […], 6 days) of the same sequence?
Answer: 69%

Question: And the “Percent inhibition … with 0.2 μM ASO” value (C4-2B cells [2]; 0.2 μM ASO, MDV3100 0 μM, 6 days)?
Answer: 59%

Question: And the “synergy with MDV3100” value (C4-2B cells [2]; C4-2B cells)?
Answer: synergistic with MDV3100

Question: What about the “cell proliferation inhibited, combination” value (C4-2B cells [2]; C4-2B cells, 0.1 μM ASO in combination with […] MDV3100) of the same sequence?
Answer: 66%

Question: And the “inhibited cell proliferation, ASO alone” value (C4-2B cells [2]; C4-2B cells, ASO alone at 0.1 μM)?
Answer: 23%

Question: What about the “reduced cell proliferation, ASO alone” value (C4-2B cells [2]; C4-2B cells, ASO alone, 6 days, Table 46 (0.1 μM ASO)) of the same sequence?
Answer: 59%

Question: And the “prostate cancer cell proliferation, ASO in combination with MDV3100” value (C4-2B cells [2]; C4-2B cells, versus equal molar ISIS 554221 + MDV3100)?
Answer: inhibited prostate cancer cell proliferation to a greater extent than an equal molar concentration of ISIS 554221 in combination of MDV3100

Question: What about the “Percent inhibition of AR splice variant, V7” value (“Percent inhibition … V7” for short) ([3]; dose 5.0 nM) of the same sequence?
Answer: 35%

Question: And the “Percent inhibition … V7” value ([3]; dose 16.7 nM)?
Answer: 56%

Question: And the “Percent inhibition … V7” value ([3]; dose 50.0 nM)?
Answer: 82%
